# Values of other authors, collected in US10779570B2, “Aerosol from tobacco” (PHILIP MORRIS PRODUCTS S.A., priority 2013, dated 2020).
# Read-outs that look alike come from different tables or passages of the source.
# How the values were obtained:
# [1] = smoke constituent
# [2] = biomarker of exposure in urine
compound,measurement,setting,value
[C-]#[O+] [Carbon monoxide],Organ Class toxicity,[1],"RDT, CT"
CC(=O)N[C@@H](CSCCO)C(=O)O [2-Hydroxyethyl-mercapturic acid],Biomarker t1/2β,[2]; plasma or blood,5 h
C=CC=O [Acrolein],Organ Class toxicity,[1],"RT, CT"
Nc1ccc2ccccc2c1 [2-Aminonaphthalene],Biomarker t1/2β,[2]; plasma or blood,9 h
"O=NN1CCC[C@H]1c1cccnc1 [NNN, N-nitrosonornicotine]",Biomarker t1/2β,[2]; plasma or blood,15 h
Nc1ccc(-c2ccccc2)cc1 [4-Aminobiphenyl],Biomarker t1/2β,[2]; plasma or blood,26 h
CC(=O)N[C@@H](CSC(C)CCO)C(=O)O (stereo partly drawn) [3-Hydroxy-1-methylpropyl-mercapturic acid],Biomarker t1/2β,[2],48 h
Cc1ccccc1 [Toluene],Organ Class toxicity,[1],"RT, RDT"
c1ccccc1 [Benzene],Organ Class toxicity,[1],"CA, CT, RDT"
"C=CC=C [1,3-Butadiene]",Organ Class toxicity,[1],"CA, RT, RDT"
CC(=O)N[C@@H](CSCCC#N)C(=O)O [2-Cyanoethylmercapturic acid],Biomarker t1/2β,[2]; plasma or blood,17 h
C=CC#N [Acrylonitrile],Organ Class toxicity,[1],"CA, RT"
S-benzyl-mercapturic acid,Biomarker t1/2β,[2]; plasma or blood,9 h
CC(=O)N[C@@H](CSCCCO)C(=O)O [3-Hydroxypropyl-mercapturic acid],Biomarker t1/2β,[2]; plasma or blood,10 h
C1CO1 [Ethylene Oxide],Organ Class toxicity,[1],"CA, RT, RDT"
